Laboratory results: EP4745139A1, “COMPOUND FOR TREATING AND PREVENTING RESPIRATORY SYNCYTIAL VIRUS INFECTION DISEASES” (CSPC Zhongqi Pharmaceutical Technology (Shijiazhuang) Co., …, priority 2023, dated 2025)

Key:
[1] = system: RSV strain A2; experiment: Antiviral detection test against RSV strain A2 based on ELISA method (Hep-2 cells); format: cell-based, Respiratory Syncytial Virus; conditions: RSV A2 virus strain, Hep-2 cells, ELISA OD450
Method: Test Example 1: Antiviral detection test of small molecules against RSV strain A2 based on ELISA method
• Source of cell line: Nanjing Kebai Biotechnology Co., Ltd. • Cell type: human laryngeal carcinoma epithelial cells Hep-2
• 96-well culture plate (Cat.No. 3610, Corning Costar); • Fetal bovine serum (Cat.No. 10099-141, GIBCO); • DMEM medium (Cat.No. 11995500BT, GIBCO); • Envision 2104 microplate reader.
• 1. Day 1: The Hep-2 cells were seeded into a 96-well plate at a density of 1×10^4 cells/well; • 2. Day 2: • A. Compound dilution: The compound in the first well was diluted to 9 µM, and 3-fold gradient dilution was performed, with a total of 10 gradients; • B. The Hep-2 cell plate prepared on Day 1 was taken out from the incubator, the supernatant was discarded, and 100 PFU/well/50 µL of the RSV A2 virus was added to each well. The plate was stood at 37°C in a 5% CO2 incubator for 2 hours, the supernatant was aspirated and discarded, and then 100 µL of the gradient-diluted compound or DMEM maintenance medium containing 2% FBS was added to each well; • 3. Day 5: • A. Add fixative: The gradient-diluted compound or medium was discarded from the wells, and 100 µL/well of fixative (4% paraformaldehyde) was added. The plate was stood at room temperature for 10 minutes, and then was washed once with 250 µL PBS; • B. 100 µL/well of a blocking solution was added, and the plate was incubated at 37°C in a 5% CO2 incubator for 30 minutes; • C. After incubation, the detection antibody (Anti RSV Fpro) was added at 0.3 µg/50 µL/well (6 µg/mL), and the plate was incubated at 37°C in a 5% CO2 incubator for 1 hour; • D. After incubation, the HRP secondary antibody was added (diluted 10,000-fold with 0.2% BSA), and the plate was incubated at 37°C in a 5% CO2 incubator for 1 hour; • E. After incubation, the wells were washed for 4 times with PBST, 250 µL/well, each washing was allowed to stand for 5 minutes, and the liquid in the wells was shaken off after completion of the washing; • F. 100 µL/well of a development solution was added, the plate was incubated at room temperature in the dark for 20 minutes, and 50 µL/well of a reaction termination solution was added. The plate was tapped gently to mix the solutions, and the absorbance at 450 nm was measured using the microplate reader. • 4. Data analysis • Inhibition rate of the compound against the virus = 100% - (SC - CC)/(VC - CC) × 100% • SC: OD450 value of the sample (cells + test compound + virus) • CC: OD450 value of the normal growing cell control (cells) • VC: OD450 value of the virus growth control (cells + virus)
The software Graphpad Prism 6 was used, and the calculation formula XY-analysis/Nonlinear regression (curve fit)/Dose response-Inhibition/log (inhibition) vs. response-Variable slope (four parameters) was adopted to fit the IC50 curve and calculate the IC50 value.

[2] = Pharmacokinetic experiment in mice after intragastric administration (plasma and lung tissue, LC/MS/MS); format: in vivo; conditions: ICR, mouse, intragastric administration at 20 mg/kg
Method: The compounds of the present invention for intragastric administration were dissolved in a suitable solvent to form a clear solution or suspension.
Administration mode and dosage: The compounds of the present invention were administered intragastrically at 10 mg/kg or 20 mg/kg.
Number of animals: 3 ICR mice per group for intragastric administration.
Sample collection: For the intragastric administration group, 100 µL of blood was collected (using pre-heparinized 100 µL Capillary Blood Collection Tubes) from the orbital vein of mice at 0.25 h, 0.5 h, 1 h, 2 h, 4 h, and 6 h after administration and placed in heparin sodium anticoagulant tubes. Mice plasma samples were obtained by centrifugation at 3000 g for 10 minutes within 2 hours. For the intragastric administration group, clean blood was collected at 6-hour time point and then lung tissues were collected.
Sample treatment: Plasma and lung tissue homogenates were subjected to protein precipitation with methanol at a certain ratio, and the supernatant was taken and diluted with 50% methanol-water at a certain ratio for sample loading.
Sample detection: The drug concentration in plasma was detected by the LC/MS/MS method, and the drug-time curve was plotted. Pharmacokinetic parameters (such as T1/2(h)/AUC0-t) were calculated by non-compartmental model statistical moments to describe the pharmacokinetic behavior of the compounds in mice after administration.
Data processing: Pharmacokinetic parameters were calculated by WinNonlin.

[3] = system: RSV; experiment: In vivo pharmacodynamic assay: mouse RSV infection model, lung viral load by plaque assay; parameters: species or system BALB/c mice; conditions: QD, lung tissue, Day 5
Method: The compound of the present invention was dissolved in a suitable solvent to form a clear solution or suspension for intragastric administration. • Animals: BALB/c mice, 6-weeks old, female. • Establishment of in vivo RSV infection model: Mice were inoculated intranasally with the virus on Day 0, with an inoculation dose of 3.5 × 10^6 p.f.u. per mouse. • Grouping of animals: Animals were divided into a vehicle control group and an administration group, with 5 animals in each group.
Administration mode and dosage: The compound of the present invention was administered intragastrically at 100 mg/kg or 50 mg/kg, or the vehicle used for the compound of the present invention was administered intragastrically. The administration volume was 10 mL/kg.
Experimental procedure: Mice were inoculated intranasally with the virus on Day 0 at an inoculation dose of 3.5 × 10^6 p.f.u. per mouse. Mice were continuously treated with the compound of the present invention from Day 0 to Day 4 for 5 days at a dose of 50 mg/kg, once daily, via intragastric administration, with an administration volume of 10 mL/kg; the first administration was conducted 1 hour before virus inoculation. Alternatively, mice were treated once with the compound of the present invention on Day 0 at a dose of 100 mg/kg, via intragastric administration, with an administration volume of 10 mL/kg; the first administration was conducted 1 hour before virus inoculation. On Day 5, mice were euthanized, and lung tissue samples were collected. Animals were observed daily from Day 0 to Day 5, and the body weight, health status, and survival status were recorded.
Sample processing: After lungs were collected, they were quickly frozen in the HBSS* solution at a 10-fold weight-to-volume ratio (w:v (g:mL) = 1:10), and stored in a -80°C refrigerator for plaque assay to detect viral load.
Sample detection: Viral load in lung tissues was detected by plaque assay. […]

[4] = molecular target: human potassium ion channel (hERG) (Homo sapiens, UniProt Q12809)
Sequence of human potassium ion channel (hERG) (Q12809 whole entry): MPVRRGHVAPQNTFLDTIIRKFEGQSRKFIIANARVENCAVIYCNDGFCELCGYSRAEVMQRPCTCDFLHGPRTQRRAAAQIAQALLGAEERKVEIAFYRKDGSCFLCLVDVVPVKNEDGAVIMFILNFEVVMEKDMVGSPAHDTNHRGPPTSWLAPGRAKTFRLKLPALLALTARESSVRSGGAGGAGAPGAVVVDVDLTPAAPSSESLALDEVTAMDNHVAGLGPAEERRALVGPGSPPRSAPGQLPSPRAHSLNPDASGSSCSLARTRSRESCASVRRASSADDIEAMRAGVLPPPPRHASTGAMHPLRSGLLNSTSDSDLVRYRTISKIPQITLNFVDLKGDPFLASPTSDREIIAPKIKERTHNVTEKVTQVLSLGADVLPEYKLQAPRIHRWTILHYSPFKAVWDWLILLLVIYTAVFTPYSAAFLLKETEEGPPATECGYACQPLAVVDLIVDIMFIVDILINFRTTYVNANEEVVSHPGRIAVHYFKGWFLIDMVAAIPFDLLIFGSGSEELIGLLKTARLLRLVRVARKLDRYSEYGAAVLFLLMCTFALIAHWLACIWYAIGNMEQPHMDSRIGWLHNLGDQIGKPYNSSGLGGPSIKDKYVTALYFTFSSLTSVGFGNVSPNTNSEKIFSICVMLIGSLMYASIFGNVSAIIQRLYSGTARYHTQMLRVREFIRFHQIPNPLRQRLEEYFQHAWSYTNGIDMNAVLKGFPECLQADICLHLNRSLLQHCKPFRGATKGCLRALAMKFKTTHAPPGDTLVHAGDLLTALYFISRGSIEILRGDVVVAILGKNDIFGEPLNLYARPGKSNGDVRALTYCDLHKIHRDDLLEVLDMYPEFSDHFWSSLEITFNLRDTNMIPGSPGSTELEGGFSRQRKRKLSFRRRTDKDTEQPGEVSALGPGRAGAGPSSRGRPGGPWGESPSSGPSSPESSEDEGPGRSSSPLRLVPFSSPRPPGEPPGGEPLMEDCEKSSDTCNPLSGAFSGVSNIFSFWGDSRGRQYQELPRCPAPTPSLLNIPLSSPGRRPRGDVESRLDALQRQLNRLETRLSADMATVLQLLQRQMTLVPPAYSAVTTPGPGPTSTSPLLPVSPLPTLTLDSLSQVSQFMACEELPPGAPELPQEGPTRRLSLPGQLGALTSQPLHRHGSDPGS
Method: Experimental equipment: Electrophysiological detection was performed using the fully automated patch clamp QPatch 48 X (Sophion) device.
Experimental procedure: The prepared cells were placed in the centrifuge chambers of the QPatch workbench, the cells were washed by the centrifugation/suspension method for multiple times to replace the cell culture medium with an extracellular solution. One MTP-96 plate was taken out and placed at the MTP source position. The QPlate chip was taken out and then the QPlate was placed at the QPlate source position. The robotic arm scanned the MTP-96 plate and the barcodes of the QPlate chip, and grabbed them to the measurement station. Intracellular and extracellular solutions were aspirated from the liquid pool and added to the intracellular solution pool and the cell and test substance pool of the QPlate chip, respectively. At the measurement station, all measurement sites on the QPlate underwent initial quality control. […] The current detected in each cell in the extracellular solution without the compound was used as its own control group, and the detection was independently repeated on two cells. […]
Data processing: The IC50 values were calculated using GraphPad Prism software.

| IC50 ([1]; human respiratory syncytial virus) [µM] | concentration at 6 h ([2]; lung, oral, read-out: Lung tissue drug concentration at 6 h) [ng/g] | half-life ([2]; plasma, po) [h] | IC50 [1] [µM] | SMILES | log (RSV Viral Load) Mean ([3]; 50 mpk, 5 days administration, value is the lower limit of detection for viral load) [°] | log (RSV Viral Load) Mean ([3]; 100 mpk, administration once) | IC50 of the Compound of the present invention /AK0529 IC50 [4] |
| --- | --- | --- | --- | --- | --- | --- | --- |
| < 0.01 | 22700 | 6.91 |  | Cc1ccc2nc(N3CCS(=O)(=NC4CC4)c4ccccc4C3)nc(N3CC[C@H](N)C3)c2c1 (stereo partly shown) [Example 4-11] | 2.30 | 2.48 |  |
|  |  |  | < 0.01 | Cc1ccc2nc(N3CCS(=O)(=NCC4CCO4)c4ccccc4C3)nc(N3CC[C@H](N)C3)c2c1 (stereo partly shown) [Example 4-61] |  |  | > 1 |
